Data from ChEMBL document CHEMBL3352455, “Small molecule disruptors of the glucokinase-glucokinase regulatory protein interaction: 4. Exploration of a novel binding pocket” (J Med Chem, 2014).

Columns and labels:
[1] = Intrinsic clearance in human liver microsomes at 1 uM after 30 mins in presence of NADPH; assay type: ADME; details: read-out: CLH
Hexokinase-4 = target: T1, Hexokinase-4 (Homo sapiens, UniProt P35557); assay: Inhibition of fluorescein-labeled human GK interaction with biotin-labeled human GKRP compound incubated for 20 mins prior to addition of fluorescein-labeled GK measured after 2 to 4 hrs by AlphaScreen assay
T1 sequence (P35557 whole entry): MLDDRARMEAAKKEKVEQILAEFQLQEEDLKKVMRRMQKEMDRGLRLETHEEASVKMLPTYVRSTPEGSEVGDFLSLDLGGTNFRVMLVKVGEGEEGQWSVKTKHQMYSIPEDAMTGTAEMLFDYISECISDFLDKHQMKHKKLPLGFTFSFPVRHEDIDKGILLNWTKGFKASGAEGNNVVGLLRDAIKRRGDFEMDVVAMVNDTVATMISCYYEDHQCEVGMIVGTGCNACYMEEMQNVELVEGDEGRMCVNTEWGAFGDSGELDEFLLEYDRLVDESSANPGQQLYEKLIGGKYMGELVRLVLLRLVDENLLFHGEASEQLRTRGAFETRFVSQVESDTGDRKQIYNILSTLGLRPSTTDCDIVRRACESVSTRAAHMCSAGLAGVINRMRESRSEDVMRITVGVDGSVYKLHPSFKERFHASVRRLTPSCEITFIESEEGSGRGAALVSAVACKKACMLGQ

[2] = Intrinsic clearance in rat liver microsomes at 1 uM after 30 mins in presence of NADPH; assay type: ADME; details: read-out: CLH

SMILES	microsomal CLint at 1 µM [1]	IC50 (Hexokinase-4)	microsomal CLint at 1 µM [2]
Cc1c(-c2cc(C(O)(C(F)(F)F)C(F)(F)F)cnc2N2CCN(S(=O)(=O)c3ccc(N)nc3)CC2)cnn1C	28 µL/min/mg	40 nM	88 µL/min/mg
COc1cncc(-c2cc(C(O)(C(F)(F)F)C(F)(F)F)cnc2N2CCN(S(=O)(=O)c3ccc(N)nc3)CC2)c1	44 µL/min/mg	17 nM	58 µL/min/mg
Nc1ccc(S(=O)(=O)N2CCN(c3ncc(C(O)(C(F)(F)F)C(F)(F)F)cc3-c3cccc4[nH]ncc34)CC2)cn1	42 µL/min/mg	1950 nM	93 µL/min/mg
CCn1cc(-c2cc(C(O)(C(F)(F)F)C(F)(F)F)cnc2N2CCN(S(=O)(=O)c3ccc(N)nc3)CC2)cn1	20 µL/min/mg	5 nM	194 µL/min/mg
CS(=O)(=O)c1ccc(-c2cc(C(O)(C(F)(F)F)C(F)(F)F)cnc2N2CCN(S(=O)(=O)c3ccc(N)nc3)CC2)cc1	32 µL/min/mg	42 nM	103 µL/min/mg
COc1cc(C(O)(C(F)(F)F)C(F)(F)F)cnc1N1CCN(S(=O)(=O)c2ccc(N)nc2)CC1	< 14 µL/min/mg	1110 nM	< 14 µL/min/mg
Nc1ccc(S(=O)(=O)N2CCN(c3ncc(C(O)(C(F)(F)F)C(F)(F)F)cc3-c3cncc(F)c3)CC2)cn1	24 µL/min/mg	11 nM	19 µL/min/mg
COc1ccc(-c2cc(C(O)(C(F)(F)F)C(F)(F)F)cnc2N2CCN(S(=O)(=O)c3ccc(N)nc3)CC2)cn1	25 µL/min/mg	16 nM	265 µL/min/mg
Nc1ccc(S(=O)(=O)N2CCN(c3ncc(C(O)(C(F)(F)F)C(F)(F)F)cc3-c3ccc4c(c3)CC(=O)N4)CC2)cn1	< 14 µL/min/mg	33 nM	119 µL/min/mg
Nc1ccc(S(=O)(=O)N2CCN(c3ncc(C(O)(C(F)(F)F)C(F)(F)F)cc3C3CC3)CC2)cn1	38 µL/min/mg	601 nM	27 µL/min/mg
Nc1ccc(S(=O)(=O)N2CCN(c3ncc(C(O)(C(F)(F)F)C(F)(F)F)cc3-c3ccc4ocnc4c3)CC2)cn1	< 14 µL/min/mg	20 nM	120 µL/min/mg
CC(C)(O)C#Cc1cc(C(O)(C(F)(F)F)C(F)(F)F)cnc1N1CCN(S(=O)(=O)c2ccc(N)nc2)CC1	< 14 µL/min/mg	49 nM	16 µL/min/mg
Nc1ccc(S(=O)(=O)N2CCN(c3ncc(C(O)(C(F)(F)F)C(F)(F)F)cc3-c3cccc(F)c3)CC2)cn1	25 µL/min/mg	8 nM	52 µL/min/mg
Nc1ccc(S(=O)(=O)N2CCN(c3ncc(C(O)(C(F)(F)F)C(F)(F)F)cc3-c3cc[nH]n3)CC2)cn1	< 14 µL/min/mg	201 nM	20 µL/min/mg
CC(C)(C)n1cc(-c2cc(C(O)(C(F)(F)F)C(F)(F)F)cnc2N2CCN(S(=O)(=O)c3ccc(N)nc3)CC2)cn1	86 µL/min/mg	87 nM	459 µL/min/mg
Cc1cncc(-c2cc(C(O)(C(F)(F)F)C(F)(F)F)cnc2N2CCN(S(=O)(=O)c3ccc(N)nc3)CC2)c1	37 µL/min/mg	29 nM	259 µL/min/mg
Nc1ccc(S(=O)(=O)N2CCN(c3ncc(C(O)(C(F)(F)F)C(F)(F)F)cc3-c3ccoc3)CC2)cn1	< 14 µL/min/mg	19 nM	57 µL/min/mg
CS(=O)(=O)Nc1cccc(-c2cc(C(O)(C(F)(F)F)C(F)(F)F)cnc2N2CCN(S(=O)(=O)c3ccc(N)nc3)CC2)c1	40 µL/min/mg	309 nM	81 µL/min/mg
COCC#Cc1cc(C(O)(C(F)(F)F)C(F)(F)F)cnc1N1CCN(S(=O)(=O)c2ccc(N)nc2)CC1	15 µL/min/mg	5 nM	399 µL/min/mg
CN1C(=O)Cc2cc(-c3cc(C(O)(C(F)(F)F)C(F)(F)F)cnc3N3CCN(S(=O)(=O)c4ccc(N)nc4)CC3)ccc21	15 µL/min/mg	20 nM	221 µL/min/mg
Nc1ccc(S(=O)(=O)N2CCN(c3ccc(C(O)(C(F)(F)F)C(F)(F)F)cn3)CC2)cn1	< 14 µL/min/mg	176 nM	< 14 µL/min/mg
Nc1ccc(S(=O)(=O)N2CCN(c3ncc(C(O)(C(F)(F)F)C(F)(F)F)cc3-c3cnccc3F)CC2)cn1	17 µL/min/mg	24 nM	22 µL/min/mg

SMILES	microsomal CLint at 1 µM [1]	IC50 (Hexokinase-4)	microsomal CLint at 1 µM [2]
Nc1ccc(S(=O)(=O)N2CCN(c3ncc(C(O)(C(F)(F)F)C(F)(F)F)cc3-c3ccncc3)CC2)cn1	15 µL/min/mg	21 nM	31 µL/min/mg
Nc1ccc(S(=O)(=O)N2CCN(c3ncc(C(O)(C(F)(F)F)C(F)(F)F)cc3-c3cc4ccccc4[nH]3)CC2)cn1	< 14 µL/min/mg	27 nM	146 µL/min/mg
Nc1ccc(S(=O)(=O)N2CCN(c3ncc(C(O)(C(F)(F)F)C(F)(F)F)cc3-c3ccccc3F)CC2)cn1	< 14 µL/min/mg	7 nM	47 µL/min/mg
Nc1ccc(S(=O)(=O)N2CCN(c3ncc(C(O)(C(F)(F)F)C(F)(F)F)cc3Br)CC2)cn1	< 14 µL/min/mg	112 nM	32 µL/min/mg
Nc1ccc(S(=O)(=O)N2CCN(c3ncc(C(O)(C(F)(F)F)C(F)(F)F)cc3C#CC3CC3)CC2)cn1	< 14 µL/min/mg	33 nM	67 µL/min/mg
Nc1ccc(S(=O)(=O)N2CCN(c3ncc(C(O)(C(F)(F)F)C(F)(F)F)cc3-c3ccc(F)cc3)CC2)cn1	< 14 µL/min/mg	11 nM	40 µL/min/mg
Nc1ccc(S(=O)(=O)N2CCN(c3ncc(C(O)(C(F)(F)F)C(F)(F)F)cc3-c3ccccc3O)CC2)cn1	22 µL/min/mg	6 nM	125 µL/min/mg
Nc1ccc(S(=O)(=O)N2CCN(c3ncc(C(O)(C(F)(F)F)C(F)(F)F)cc3-c3cc4ccccc4s3)CC2)cn1	< 14 µL/min/mg	48 nM	315 µL/min/mg
Cn1cc(-c2cc(C(O)(C(F)(F)F)C(F)(F)F)cnc2N2CCN(S(=O)(=O)c3ccc(N)nc3)CC2)c(C(F)(F)F)n1	50 µL/min/mg	30000 nM	121 µL/min/mg
Nc1ccc(S(=O)(=O)N2CCN(c3ncc(C(O)(C(F)(F)F)C(F)(F)F)cc3-c3ccccc3)CC2)cn1	< 14 µL/min/mg	7 nM	49 µL/min/mg
CC(C)n1cc(-c2cc(C(O)(C(F)(F)F)C(F)(F)F)cnc2N2CCN(S(=O)(=O)c3ccc(N)nc3)CC2)cn1	38 µL/min/mg	23 nM	198 µL/min/mg
Nc1ccc(S(=O)(=O)N2CCN(c3ncc(C(O)(C(F)(F)F)C(F)(F)F)cc3Cl)CC2)cn1	< 14 µL/min/mg	201 nM	26 µL/min/mg
Nc1ccc(S(=O)(=O)N2CCN(c3ncc(C(O)(C(F)(F)F)C(F)(F)F)cc3-c3ccc4[nH]ncc4c3)CC2)cn1	27 µL/min/mg	60 nM	88 µL/min/mg
NC(=O)c1cccc(-c2cc(C(O)(C(F)(F)F)C(F)(F)F)cnc2N2CCN(S(=O)(=O)c3ccc(N)nc3)CC2)c1	17 µL/min/mg	50 nM	63 µL/min/mg
Nc1ccc(S(=O)(=O)N2CCN(c3ncc(C(O)(C(F)(F)F)C(F)(F)F)cc3C#CCCO)CC2)cn1	< 14 µL/min/mg	17 nM	68 µL/min/mg
Cc1csc(-c2cc(C(O)(C(F)(F)F)C(F)(F)F)cnc2N2CCN(S(=O)(=O)c3ccc(N)nc3)CC2)c1	29 µL/min/mg	5 nM	399 µL/min/mg
Cc1nc2cc(-c3cc(C(O)(C(F)(F)F)C(F)(F)F)cnc3N3CCN(S(=O)(=O)c4ccc(N)nc4)CC3)ccc2o1	< 14 µL/min/mg	15 nM	99 µL/min/mg
Nc1ccc(S(=O)(=O)N2CCN(c3ncc(C(O)(C(F)(F)F)C(F)(F)F)cc3-c3ccc4sccc4c3)CC2)cn1	48 µL/min/mg	47 nM	487 µL/min/mg
Cc1ccc(-c2cc(C(O)(C(F)(F)F)C(F)(F)F)cnc2N2CCN(S(=O)(=O)c3ccc(N)nc3)CC2)cn1	43 µL/min/mg	40 nM	182 µL/min/mg
Nc1ccc(S(=O)(=O)N2CCN(c3ncc(C(O)(C(F)(F)F)C(F)(F)F)cc3C#CCO)CC2)cn1	< 14 µL/min/mg	14 nM	65 µL/min/mg
Nc1ccc(S(=O)(=O)N2CCN(c3ncc(C(O)(C(F)(F)F)C(F)(F)F)cc3-c3ccc4scnc4c3)CC2)cn1	39 µL/min/mg	35 nM	147 µL/min/mg
